Results on 6 molecules are retold here after patent US20130012466A1 (priority 2006, published 2013).

Where two headings read alike, the source gives them in different places. Where only a bound is given, the exact number is not on record here.

Series [1] relates to Du145. Put plainly: Cytotoxicity assay (cell titer-glo and calcein AM), Du145. As to conditions: Du145, % error in parentheses.
The subject of series [2] is MCF7. Put plainly: Cytotoxicity assay (cell titer-glo and calcein AM), MCF7.
Series [3] deals with ADR-RES. The series is described as follows: Cytotoxicity assay (cell titer-glo and calcein AM), ADR-RES. Conditions: NCI/ADR RES, % error in parentheses.
For series [4], the system named is tubulin. The series is described as follows: In vitro tubulin polymerization assay (fluorescence-based). Conditions: tested in duplicate on at least two days. It is filed as biochemical. As for the experimental part: In vitro tubulin polymerization assays were performed using a fluorescence-based assay (Cytoskeleton, Inc., Denver, Colo.). […] Aliquots (5 μL) of each compound or control were added to a 96-well black half area plate (Corning Costar, Inc.) pre-warmed to 37° C. Cold tubulin reaction mix (50 μL 1× Buffer—80 mM piperazine-N,N′-bis[2-ethanesulfonic acid]sequisodium salt; 2.0 mM magnesium chloride; 0.5 mM ethylene glycol-bis[β-amino-ethyl ether) N,N,N′,N′-tetra-acetic acid, pH 6.9, 10 μM fluorescent reporter; 20% tubulin glycerol buffer—80 mM piperazine-N,N′-bis[2-ethanesulfonic acid] sequisodium salt; 2.0 mM magnesium chloride; 0.5 mM ethylene glycol-bis(β-amino-ethyl ether) N,N,N′,N′-tetra-acetic acid, 60% v/v glycerol, pH 6.9, 1 mM GTP; and 2 mg mL^−1 tubulin stock) was added to each of the compounds. […] Polymerization curves were generated in Excel after background correction and the effects of test compounds were compared to controls.
Library members that accelerated the rate of tubulin polymerization were deemed microtubule stabilizers, whereas compounds that decelerated the rate of tubulin polymerization were deemed microtubule de-stabilizers.

Series [5] relates to SK-OV-3. Put plainly: Cytotoxicity assay (cell titer-glo and calcein AM), SK-OV-3. As to conditions: SK-OV-3, % error in parentheses.
Series [6] relates to NCI-H460. The series is described as follows: Cytotoxicity assay (cell titer-glo and calcein AM), NCI-H460. Conditions: NCI-H460, % error in parentheses.
In series [7] the test system is Hep3B. Put plainly: Cytotoxicity assay (cell titer-glo and calcein AM), Hep3B. As to conditions: Hep 3B, % error in parentheses.
Series [8] has as its system mouse mammary normal epithelial control cell line. Put plainly: Cytotoxicity assay, normal control cell line.
Series [9] deals with SF-268. Put plainly: Cytotoxicity assay (cell titer-glo and calcein AM), SF-268. As to conditions: SF-268, % error in parentheses.
Series [10] relates to A549. Put plainly: Cytotoxicity assay (cell titer-glo and calcein AM), A549. As to conditions: A549, % error in parentheses.
Series [11] deals with A549 cells. Put plainly: Drug combination study with paclitaxel (Chou-Talalay combination index).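 For all read-outs here: combination indexes averaged only over points where fraction affected exceeded 0.2, with each synergy experiment repeated at least three times.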 Conditions: for plus paclitaxel, mean CI / plus paclitaxel, median CI: combination index, paclitaxel held at IC10, A549 cells; for interaction with paclitaxel/taxol: drug combination, A549 cells, Chou-Talalay.
Experimental: (§1) Ten thousand A549 cells per well were plated in triplicate in 96 well black tissue culture treated plates. Cells were incubated for one hour at 37° C. to allow cells to attach.
(§2) All synergy experiment results were replicated at least three times and the overall effects analyzed by averaging all combination indexes generated if the fraction affected was greater than 0.2.
In series [12] the test system is A549 cells. Put plainly: Drug combination study with colchicine (Chou-Talalay combination index). As to conditions: for plus colchicine, mean CI / plus colchicine, median CI: combination index, colchicine held at IC10, A549 cells; for interaction with colchicine: drug combination, A549 cells, Chou-Talalay.
Experimental: as §1, §2
The test system of series [13] is HCT-116. Put plainly: Cytotoxicity assay (cell titer-glo and calcein AM), HCT-116. Conditions: HCT-116, % error in parentheses.
Setting [14] is: read-out: Cytotoxicity IC50, Du145, CTG, CTG (cell titer-glo) readout.
Setting [15] is: read-out: Cytotoxicity IC50, Du145, calcein, calcein AM readout.
Where [16] appears, read: read-out: Cytotoxicity IC50, MCF7, CTG, CTG (cell titer-glo) readout, % error in parentheses.
The mark [17] stands for this setting: read-out: Cytotoxicity IC50, NCI/ADR RES, CTG, CTG (cell titer-glo) readout.
Where [18] appears, read: read-out: Cytotoxicity IC50, NCI/ADR RES, calcein, calcein AM readout.
The mark [19] stands for this setting: read-out: Cytotoxicity IC50, SK-OV-3, CTG, CTG (cell titer-glo) readout.
Setting [20] is: read-out: Cytotoxicity IC50, SK-OV-3, calcein, calcein AM readout.
Setting [21] is: read-out: Cytotoxicity IC50, NCI-H460, CTG, CTG (cell titer-glo) readout.
Where [22] appears, read: read-out: Cytotoxicity IC50, NCI-H460, calcein, calcein AM readout.
The mark [23] stands for this setting: read-out: Cytotoxicity IC50, Hep 3B, CTG, CTG (cell titer-glo) readout.
[24] abbreviates: read-out: Cytotoxicity IC50, Hep 3B, calcein, calcein AM readout.
[25] abbreviates: read-out: Cytotoxicity IC50, NmuMG, CTG, CTG (cell titer-glo) readout, % error in parentheses.
[26] abbreviates: read-out: Cytotoxicity IC50, NmuMG, calcein, calcein AM readout, % error in parentheses.
[27] abbreviates: read-out: Cytotoxicity IC50, SF-268, CTG, CTG (cell titer-glo) readout.
[28] abbreviates: read-out: Cytotoxicity IC50, SF-268, calcein, calcein AM readout.
[29] abbreviates: read-out: Cytotoxicity IC50, A549, CTG, CTG (cell titer-glo) readout.
Setting [30] is: read-out: Cytotoxicity IC50, A549, calcein, calcein AM readout.
The mark [31] stands for this setting: read-out: Cytotoxicity IC50, MCF7, calcein, calcein AM readout, % error in parentheses.

On to `COc1cc2c(c(OC)c1OC)-c1ccc(OC)c(=O)cc1[C@@H](NC(=O)CN(OC)[C@@H]1O[C@H](CO)[C@@H](O[C@H]3O[C@H](CO)[C@@H](O)[C@H](O)[C@H]3O)[C@H](O)[C@H]1O)CC2` [Col38, D-maltoside], for which the IC50 in series [1] (setting [14]) is 0.215 µM; in [1] (setting [15]), 0.342 µM; in series [2] (setting [16]) it was 0.291 µM; in series [3] (setting [17]), 0.199 µM; in [3] (setting [18]), 0.173 µM; in [5] (setting [19]), 0.252 µM. Besides, the IC50 in [5] (setting [20]) was 0.316 µM; in [6] (setting [21]), 0.112 µM; in [6] (setting [22]) it was 0.487 µM; in [7] (setting [23]), 0.229 µM; in series [7] (setting [24]), 1.39 µM; in series [8] (setting [25]) it was 0.976 µM. Further, the IC50 in [8] (setting [26]) was 0.875 µM; in series [9] (setting [27]) it was 0.16 µM; in series [9] (setting [28]), 0.319 µM; in series [10] (setting [29]) it was 0.244 µM; in series [10] (setting [30]), 0.508 µM. Further, in series [4], the “effect on tubulin polymerization / microtubules” value is “destabilized microtubules”.
`COc1cc2c(c(OC)c1OC)-c1ccc(OC)c(=O)cc1[C@@H](NC(=O)CN(OC)[C@@H]1O[C@H](C(=O)O)[C@H](O)[C@H](O)[C@H]1O)CC2` [Col18, D-Galacturonoside]: the IC50 in series [1] (setting [14]) is 1.12 µM; in series [1] (setting [15]) it was 1.19 µM; in series [2] (setting [16]), 1.16 µM; in series [2] (setting [31]), 1.49 µM; in series [3] (setting [17]) it was 1.11 µM; in [3] (setting [18]), 0.828 µM. For the same molecule, the IC50 in series [5] (setting [19]) was 1.08 µM; in [5] (setting [20]), 1.07 µM; in series [6] (setting [21]), 0.993 µM; in [6] (setting [22]) it was 1.13 µM; in series [7] (setting [23]), 2 µM; in [7] (setting [24]), 2.27 µM. The IC50 in [8] (setting [25]) is 2.09 µM; in series [8] (setting [26]) it was 2.62 µM; in series [9] (setting [27]), 0.834 µM; in series [9] (setting [28]), 1.11 µM; in [10] (setting [29]) it was 1.1 µM; in [10] (setting [30]), 1.07 µM. The “effect on tubulin polymerization / microtubules” value in series [4] is “no effect”.
`COc1cc2c(c(OC)c1OC)-c1ccc(OC)c(=O)cc1[C@@H](NC(=O)CN(OC)[C@H]1C[C@@H](O)[C@H](O)[C@@H](CO)O1)CC2` [Col16, 2-deoxy-D-glucoside]: the IC50 in [1] (setting [14]) was 0.705 µM; in series [1] (setting [15]), 0.91 µM; in series [2] (setting [16]), 2.65 µM; in [2] (setting [31]) it was 1.92 µM; in [3] (setting [17]) it was 1.68 µM; in series [3] (setting [18]) it was 0.899 µM. For the same molecule, the IC50 in series [5] (setting [19]) was 0.432 µM; in series [5] (setting [20]), 0.625 µM; in series [6] (setting [21]), 0.946 µM; in series [6] (setting [22]) it was 0.808 µM; in [7] (setting [23]) it was 1.92 µM; in series [7] (setting [24]) it was 1.44 µM. The IC50 in [8] (setting [25]) is 1.61 µM; in [8] (setting [26]) it was 4.42 µM; in series [9] (setting [27]), 1.07 µM; in [9] (setting [28]), 1.54 µM; in [10] (setting [29]), 3.9 µM; in series [10] (setting [30]), 1.68 µM. Moreover, in series [11], the “plus paclitaxel, mean CI” value is listed as 0.40. The “plus paclitaxel, median CI” value in series [11] was found to be 0.11. Also, the “interaction with paclitaxel/taxol” value in series [11] is “synergy”. In addition, the “plus colchicine, mean CI” value in series [12] was determined as 5.97. For the same molecule, in series [12], the “plus colchicine, median CI” value is 5.33. The “interaction with colchicine” value in series [12] was “antagonism”. The “effect on tubulin polymerization / microtubules” value in series [4] is listed as “destabilized microtubules”.
In the case of `COc1cc2c(c(OC)c1OC)-c1ccc(OC)c(=O)cc1[C@@H](NC(=O)CN(OC)[C@@H]1O[C@H](CO)[C@@H](N=[N+]=[N-])[C@H](O)[C@H]1O)CC2` [Col44, 4-deoxy-4-azido-D-glucoside], the IC50 is greater than 1 µM in [1] (setting [14]); greater than 1 µM in series [1] (setting [15]); 0.596 µM in series [2] (setting [16]); 0.676 µM in series [2] (setting [31]); greater than 1 µM in series [3] (setting [17]); greater than 1 µM in series [3] (setting [18]). For the same molecule, the IC50 is greater than 1 µM in series [5] (setting [19]); greater than 1 µM in [5] (setting [20]); greater than 1 µM in series [6] (setting [21]); greater than 1 µM in series [6] (setting [22]); 0.453 µM in series [7] (setting [23]); 0.671 µM in series [7] (setting [24]). Further, the IC50 is 1.43 µM in [8] (setting [25]); 3.66 µM in [8] (setting [26]); 0.229 µM in [9] (setting [27]); 0.412 µM in [9] (setting [28]); 0.315 µM in series [10] (setting [29]); 0.649 µM in series [10] (setting [30]). The “effect on tubulin polymerization / microtubules” value in series [4] was “destabilized microtubules”.
Turning to 6-thio-D-mannose dimer [Col58], the IC50 was 2.09 µM in series [1] (setting [14]); 2.12 µM in series [1] (setting [15]); 1.9 µM in [13] (read-out: Cytotoxicity IC50, HCT-116, CTG, CTG (cell titer-glo) readout); 2.51 µM in series [13] (read-out: Cytotoxicity IC50, HCT-116, calcein, calcein AM readout); 2.5 µM in [2] (setting [16]); 3.86 µM in series [2] (setting [31]). Further, the IC50 in [3] (setting [17]) is 3.6 µM; in series [3] (setting [18]), 1.57 µM; in series [5] (setting [19]) it was 6.07 µM; in series [5] (setting [20]), 7.56 µM; in series [6] (setting [21]), greater than 10 µM; in series [6] (setting [22]) it was greater than 10 µM. The IC50 in [7] (setting [23]) was 8.62 µM; in [7] (setting [24]) it was 5.02 µM; in series [8] (setting [25]), 6.39 µM; in series [8] (setting [26]) it was greater than 10 µM; in series [9] (setting [27]), 8.01 µM; in [9] (setting [28]) it was 9.09 µM. Besides, the IC50 in series [10] (setting [29]) was 3.92 µM; in series [10] (setting [30]), 4.62 µM.
As to `COc1cc2c(c(OC)c1OC)-c1ccc(OC)c(=O)cc1[C@@H](NC(=O)CN(OC)[C@@H]1O[C@H](CO)[C@@H](O)[C@H](O)[C@H]1F)CC2` [Col34, 2-fluoro-2-deoxy-D-glucoside], the IC50 is 0.328 µM in series [1] (setting [15]); 0.242 µM in [2] (setting [16]); 0.254 µM in [2] (setting [31]); greater than 1 µM in series [3] (setting [17]); greater than 1 µM in [3] (setting [18]); 0.325 µM in series [5] (setting [19]). Also, the IC50 in series [5] (setting [20]) was 0.8 µM; in [6] (setting [21]) it was greater than 1 µM; in series [6] (setting [22]), greater than 1 µM; in [7] (setting [23]) it was 0.545 µM; in series [7] (setting [24]), 1.17 µM; in [8] (setting [25]) it was 0.451 µM. Also, the IC50 is 0.76 µM in [8] (setting [26]); 0.281 µM in series [9] (setting [27]); 0.452 µM in series [9] (setting [28]); 0.545 µM in series [10] (setting [29]); 0.778 µM in series [10] (setting [30]). The “plus paclitaxel, mean CI” value in [11] came to 0.18. Moreover, in series [11], the “plus paclitaxel, median CI” value came to 0.12. The “interaction with paclitaxel/taxol” value in series [11] is “strong synergism”. Also, the “plus colchicine, mean CI” value in [12] came out at 31.49. The “plus colchicine, median CI” value in [12] is on record as 21.50. In series [12], the “interaction with colchicine” value is “strong antagonism”. The “effect on tubulin polymerization / microtubules” value in [4] is “destabilized microtubules”.
